{"source": "paper PMC7725824", "about": "“Fused isoselenazolium salts suppress breast cancer cell growth by dramatic increase in pyruvate-dependent mitochondrial ROS production” (Scientific Reports, 2020)", "key": {"[1]": {"experiment": "Cytotoxicity assay (MTT), 3T3", "format": "cell-based, mouse", "settings": "mouse, NIH 3T3 cells (fibroblasts), normal cell line, mean ± S.D., 3 experiments", "procedure": "(§1) MCF-7 (human breast adenocarcinoma, estrogen-positive) and 4T1 (mouse carcinoma), as breast cancer cell lines, and H9C2 (rat cardiomyoblasts), NIH 3T3 (mouse fibroblasts), HEKa (primary human epidermal keratinocytes), MDCK (Madin-Darby Canine Kidney) cells, and A7r5 (rat vascular smooth muscle cells), as normal cell lines, were obtained from the American Type Culture Collection [ATCC] collection for use in the current study. All cell lines were cultured in Dulbecco's modified Eagle's medium (DMEM) containing 10% fetal bovine serum (FBS) and 4 mM L-glutamine at 37 °C and 5% CO2.\n(§2) Cell viability was assessed by the addition of 3-(4,5-dimethylthiazol-2-yl)-2,5-diphenyltetrazolinium bromide (MTT). Briefly, cells were seeded (2–6 × 10^4 cells/ml) in 96-well plates and allowed to attach for 24 h. Solutions of test compounds were prepared and serially diluted to obtain the appropriate concentrations. The cells were treated with the test compounds at different concentrations (0.032–100 µM) and incubated for 48 h at 37 °C and 5% CO2. Then, the culture medium was removed, and medium containing 0.2 mg/ml MTT was added. After 3 h (37 °C, 5% CO2), the MTT-containing medium was removed, and 200 μl of dimethyl sulfoxide (DMSO) was immediately added to each sample. The absorbance was assessed at 540 nm using a Tecan multiplate reader Infinite 1000 (Austria). The half-maximal inhibitory concentration (IC50) of each compound was calculated using Graph Pad Prism 3.0."}, "[2]": {"experiment": "Cytotoxicity assay (MTT), H9C2", "format": "cell-based, rat", "settings": "rat, H9C2 cells (cardiomyoblasts); normal cell line; MTT, 48 h; mean ± S.D., 3 experiments", "procedure": "as §1, §2"}, "MCF-7 cells [3]": {"tested_on": "MCF-7 cells", "experiment": "NAD+/NADH assay kit measurement", "format": "cell-based, human", "settings": "2 μM, 10 min, vs control", "procedure": "The NAD^+/NADH ratio in the MCF-7 cells exposed to the test compounds (2 μM) for 10 min was measured using an NAD^+/NADH assay kit (Abcam, ab65348) according to the manufacturer's instructions."}, "MCF-7 cells [4]": {"tested_on": "MCF-7 cells", "experiment": "Fluorometric measurement of NMN level", "format": "cell-based, human", "settings": "2 μM, 10 min, vs control", "procedure": "For fluorometric measurements of NMN, a previously described method was used, with minor modifications. […] The cells were washed with PBS and then lysed by adding 200 μl of 1 M HClO4 to each well and incubating at 4 °C for 20 min. The cells were harvested by scraping and transferred to a tube. The extracts were neutralized with 100 μl of 2 M KOH for 5 min at room temperature and 50 μl of 0.1 M bicine (pH 7.4) was added. The samples were centrifuged at 14 000 × g for 10 min at 4 °C, and the supernatant was collected for further analysis. The protein concentration in each sample was determined using a Bio-Rad protein assay kit. […] The reaction was incubated for 2 min at 4 °C, after which 45 μl of 88% formic acid was added, and the samples were incubated for another 10 min at 37 °C on a shaker. The fluorescence was measured using a Tecan multiplate reader Infinite 1000 (Austria) with excitation at 382 nm and emission at […]."}, "NAMPT": {"biological_target": "T1, NAMPT (Homo sapiens, UniProt P43490)", "T1 construct": "endogenous in cells; host or cells: MCF-7", "T1 sequence (P43490 whole entry)": "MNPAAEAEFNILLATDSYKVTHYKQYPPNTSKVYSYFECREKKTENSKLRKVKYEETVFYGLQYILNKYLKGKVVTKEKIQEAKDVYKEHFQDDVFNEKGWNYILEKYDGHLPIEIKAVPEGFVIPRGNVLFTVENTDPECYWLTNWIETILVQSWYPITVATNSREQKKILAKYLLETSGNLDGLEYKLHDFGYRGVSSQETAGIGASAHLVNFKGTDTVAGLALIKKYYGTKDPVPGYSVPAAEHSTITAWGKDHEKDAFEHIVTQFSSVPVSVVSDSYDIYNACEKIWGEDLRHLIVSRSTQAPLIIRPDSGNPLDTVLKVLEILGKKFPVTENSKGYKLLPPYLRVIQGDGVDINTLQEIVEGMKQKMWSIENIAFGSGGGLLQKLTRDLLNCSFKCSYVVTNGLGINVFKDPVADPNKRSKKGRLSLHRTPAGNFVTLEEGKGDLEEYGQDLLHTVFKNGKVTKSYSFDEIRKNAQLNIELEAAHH", "experiment": "NAMPT activity assay in lysates of treated cells", "format": "cell-based", "settings": "MCF-7 cells, 2 µM, 4 h", "procedure": "MCF-7 cells (5 × 10^6 cells per well) were grown in a 6-well plate and then incubated with the test compounds (2 µM) for 4 h. The cells were harvested by scraping, washed with PBS and lysed with 50 mM Tris–HCl (pH 7.5), 150 mM NaCl, 1 mM DTT, 1 mM PMSF, 0.002 mg/ml leupeptin and pepstatin (2 × 10^6 cells in 100 µl buffer solution). After three freeze–thaw cycles at -80 °C, the cell extract was centrifuged at 15 000 × g for 30 min at 4 °C. The supernatant was collected, and the protein concentrations were determined using a Bio-Rad protein assay kit. The NAMPT enzyme reaction was performed as described previously. The enzymatic reaction mixture contained 50 mM Tris–HCl buffer (pH 7.5), 12 mM MgCl2, 2 mM DTT, 0.02% BSA, 2.5 mM ATP, 0.8 mM PRPP, and 50 μM nicotinamide. […] The concentrations of the NAMPT reaction product, nicotinamide mononucleotide (NMN), in the samples were determined using a described method. […] The fluorescence was measured using a Tecan multiplate reader Infinite 1000 (Austria) with excitation at 382 nm and emission at 445 nm. The NMN concentrations in the reaction mixtures were determined by comparison with NMN standards in the range of 0.16–20 μM. The NAMPT activity in the cell lysates is expressed as the concentration of NMN in μmol per mg protein per hour based on standard NMN readings."}, "4T1": {"tested_on": "4T1", "experiment": "Cytotoxicity assay (MTT), 4T1", "format": "cell-based, mouse", "procedure": "as §1, §2"}, "[5]": {"experiment": "Cytotoxicity assay (MTT), HEKa", "format": "cell-based, human", "settings": "human, HEKa cells (primary epidermal keratinocytes), normal cell line, mean ± S.D., 3 experiments", "procedure": "as §1, §2"}, "[6]": {"experiment": "Cytotoxicity assay (MTT), MDCK", "format": "cell-based, Canine", "settings": "dog, MDCK cells, normal cell line, mean ± S.D., 3 experiments", "procedure": "as §1, §2"}, "MCF-7": {"tested_on": "MCF-7", "experiment": "Cytotoxicity assay (MTT), MCF-7", "format": "cell-based, human", "settings": "Homo sapiens, MCF7; breast cancer cell line; MTT, 48 h; mean ± S.D., 3 experiments; read-out: Cytotoxicity, IC50, MCF-7", "procedure": "as §1, §2"}, "[7]": {"experiment": "Cytotoxicity assay (MTT), A7r5", "format": "cell-based, rat", "settings": "rat, A7r5 cells (vascular smooth muscle cells), normal cell line, mean ± S.D., 3 experiments", "procedure": "as §1, §2"}, "permeabilized 4T1 cells": {"tested_on": "permeabilized 4T1 cells", "experiment": "High-resolution fluorespirometry (respiration and H2O2 flux)", "format": "cell-based, mouse", "procedure": "High-resolution fluorespirometry was performed using an Oxygraph-2 k system (OROBOROS INSTRUMENTS, Austria). All experiments were performed at 37 °C in MiR05 medium (110 mM sucrose, 60 mM K-lactobionate, 0.5 mM EGTA, 3 mM MgCl2, 20 mM taurine, 10 mM KH2PO4, 20 mM HEPES, pH 7.1 at 30 °C, and 0.1% BSA essentially fatty acid free). The medium was reoxygenated when the oxygen concentration dropped to 80 µM. H2O2 flux was simultaneously measured with respirometry in the O2k-Fluorometer using the H2O2-sensitive probe Ampliflu Red (AmR) as described. The H2O2/O flux ratio [%] was calculated as the H2O2 flux/(0.5 O2 flux).\nIn permeabilized 4T1 cells, pyruvate + malate (5 and 2 mM) or glutamate + malate (10 and 2 mM) were used to determine complex I (CI)-linked LEAK (L) respiration. ADP was added to a concentration of 5 mM to determine the oxidative phosphorylation-dependent respiration (OXPHOS state). Succinate (10 mM, complex II (CII) substrate) was then added to reconstitute convergent CI&II-linked respiration. Rotenone (0.5 µM, an inhibitor of complex I) and antimycin A (2.5 µM, an inhibitor of complex III) were added to determine the CII-linked OXPHOS capacity and residual oxygen consumption (ROX), respectively. Compound 6 was added to permeabilized cells after the addition of the respective substrates in the OXPHOS state (titration experiment) or in the LEAK state. In addition, compounds 3, 6 and 7 were tested at 1 µM in the OXPHOS coupling protocol in the LEAK state. The OXPHOS coupling efficiency was calculated as: 1-Resp.rateLEAKstate/Resp.rateOXPHOSstate\nThe substrate-dependent flux control factor was calculated as: 1-Resp.ratebeforeadditionofrespectivesubstrate/Resp.rateafteradditionofrespectivesubstrate"}, "[8]": {"settings": "1 µM, pyruvate-dependent OXPHOS state"}, "[9]": {"settings": "titration, pyruvate + malate and glutamate + malate, OXPHOS"}}, "data": [{"compound": "OC1(c2[se][n+]3ccccc3c2Br)CCCCC1.[Cl-]", "note": "[Compound 3, 3-bromo-2-(1-hydroxycyclohexyl)-[1,2]selenazolo[2,3-a]pyridinium chloride]", "values": [{"measurement": "IC50 at 48 h", "setting": "[1]", "value": "0.39 ± 0.05", "unit": "µM"}, {"measurement": "IC50 at 48 h", "setting": "[2]", "value": "2.2 ± 0.1", "unit": "µM"}, {"measurement": "decrease in NAD+ level", "setting": "MCF-7 cells [3]", "value": 59, "unit": "%"}, {"measurement": "decrease in NAD+/NADH ratio", "setting": "MCF-7 cells [3]", "value": 38, "unit": "%"}, {"measurement": "decrease in NADH level", "setting": "MCF-7 cells [3]", "value": 33, "unit": "%"}, {"measurement": "decrease in NMN levels", "setting": "MCF-7 cells [4]", "value": 33, "unit": "%"}, {"measurement": "reduction in NAMPT activity", "setting": "NAMPT", "value": "slight decreases"}, {"measurement": "IC50", "setting": "4T1; Mus musculus, 4T1, breast cancer cell line, MTT, 48 h, mean ± S.D., 3 experiments, read-out: Cytotoxicity, IC50, 4T1", "value": "0.044 ± 0.005", "unit": "µM"}, {"measurement": "selectivity towards tumor cell lines", "setting": "4T1; comparing 4T1 to A7r5", "value": "> 42", "unit": "fold"}, {"measurement": "IC50 at 48 h", "setting": "[5]", "value": "2.21 ± 0.02", "unit": "µM"}, {"measurement": "IC50 at 48 h", "setting": "[6]", "value": "2.91 ± 0.13", "unit": "µM"}, {"measurement": "IC50", "setting": "MCF-7", "value": "0.5 ± 0.02", "unit": "µM"}, {"measurement": "IC50 at 48 h", "setting": "[7]", "value": "1.85 ± 0.22", "unit": "µM"}, {"measurement": "OXPHOS coupling efficiency", "setting": "permeabilized 4T1 cells; 1 µM", "value": "significant decrease"}, {"measurement": "increase in H2O2/O ratio", "setting": "permeabilized 4T1 cells; [8]", "value": "immediate significant increases"}, {"measurement": "increase in H2O2 production", "setting": "permeabilized 4T1 cells; [8]", "value": "immediate significant increases"}, {"measurement": "mitochondrial function in the CII-linked OXPHOS state", "setting": "permeabilized 4T1 cells; titration", "value": "no significant changes"}, {"measurement": "H2O2 production with complex I (NADH-linked) substrates", "setting": "permeabilized 4T1 cells; [9]", "value": "increased"}, {"measurement": "mitochondrial respiration rate with complex I (NADH-linked) substrates", "setting": "permeabilized 4T1 cells; [9]", "value": "inhibited"}]}]}
